Laboratory results published in patent US11884649B2, “IRE1α inhibitors and uses thereof” (The Regents of the University of California, priority 2020, dated 2024).

Assays:
Type in all cases: biochemical
[1] = biological target: T1, IRE1α* (Homo sapiens, UniProt O75460); assay: In vitro kinase activity assay (IRE1α kinase inhibition)
T1 construct: human IRE1α (residues 547-977, IRE1α*) was expressed in SF9 insect cells; His6 (N); made in house; host or cells: Sf9 insect cells (Bac-to-Bac baculovirus)
T1 sequence (O75460 547-977): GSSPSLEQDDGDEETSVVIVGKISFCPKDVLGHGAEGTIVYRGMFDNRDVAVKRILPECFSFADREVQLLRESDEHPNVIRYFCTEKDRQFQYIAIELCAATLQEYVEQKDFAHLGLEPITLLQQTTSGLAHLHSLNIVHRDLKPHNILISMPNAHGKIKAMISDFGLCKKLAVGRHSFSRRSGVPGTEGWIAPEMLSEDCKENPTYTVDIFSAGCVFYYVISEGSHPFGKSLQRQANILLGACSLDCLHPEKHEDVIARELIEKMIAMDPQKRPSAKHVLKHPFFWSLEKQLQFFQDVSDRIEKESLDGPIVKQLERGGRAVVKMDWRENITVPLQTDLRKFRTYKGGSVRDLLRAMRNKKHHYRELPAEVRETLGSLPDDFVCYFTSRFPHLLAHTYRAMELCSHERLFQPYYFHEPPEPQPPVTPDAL
Description: A construct containing the cytosolic kinase and RNase domains of human IRE1α (residues 547-977, IRE1α*) was expressed in SF9 insect cells by using the Bac-to-Bac baculovirus expression system (Invitrogen) with a His6 tag at the N-terminus and purified with a nickel-nitriloacetic acid (Qiagen) column. To generate dP-IRE1α*, we removed basal phosphorylation sites by incubating IRE1α* with λ-PPase (New England Biolabs) at a molar ratio of 5:1 (IRE1α*: λ-PPase) in 50 mM HEPES pH 7.5, 100 mM NaCl, 1 mM MnCl2, 2 mM dithiothreitol (DTT) and 0.01% Brij 35 detergent (v/v) overnight at 4° C. Dephosphorylation was verified through western blotting using a universal phospho-protein detection agent (biotin-pIMAGO (Tymora Analytical Operations, Cat. No.: FL800) and imaged using a streptavidin-linked fluorophore.
In Vitro Kinase Activity Assay
Inhibitors (initial concentration of 10 or 60 μM, three-fold serial dilutions) were incubated with IRE1α* in cleavage buffer (20 mM HEPES, 0.05% Triton X-100 (v/v), 50 mM KCl, 1 mM MgCl2, 1 mM DTT, pH 7.5) for 30 min, followed by incubation with 10 μCi [γ^32P] ATP (3,000 Ci mmol^−1, PerkinElmer) at 23° C. for 3 hours. Samples were then spotted onto glass fiber paper (Easytab-C Glass Fiber Filter Paper, Perkin Elmer) and washed in twice with 0.5% phosphoric acid and autoradiographed using a GE Typhoon FLA 9000 Imager. Blots were quantitated using ImageQuant software. The percent inhibition was quantified by setting the background (no kinase well) as 0 and standardizing to IRE1α* without compound treatment (IRE1α*+DMSO). Dose-response curves were fit using “one-site fit log IC50” parameter using GraphPad Prism analysis software.
Compound Characterization (IC50 IRE1α Kinase Inhibition)

[2] = biological target: T1, IRE1α*; assay: In vitro RNase activity assay, XBP1-mini substrate cleavage, inhibitor titrations; settings: relative to apo IRE1α*
Description: In Vitro RNase Activity Assay Inhibitor Titrations
50 nM IRE1α* was incubated with inhibitor (initial concentration of 10 or 60 μM, three-fold serial dilutions) or DMSO for 30 min in assay buffer (20 mM Tris, 50 mM NaCl, 1 mM MgCl2, 2 mM DTT, 0.05% Triton X-100 (v/v), pH 7.5). Assays were initiated by adding 10 μL of XBP1-mini substrate (5′-Alex647-CAUGUCCGCAGCGCAUG-IowaBlack-FQ-3′ (SEQ ID NO: 1); IDT) to the wells at a final concentration of 200 nM and a final well volume of 30 μL. Fluorescence was detected on a Perkin Elmer Envision Microplate Reader at excitation and emission wavelengths of 650 nm and 665 nm. Dose-response curves were fit using “one-site fit log IC50” parameter using GraphPad Prism analysis software.

[3] = biological target: T1, IRE1α*; assay: In vitro Kdimer assay (dimerization affinity from RNase activity); settings: 50 μM inhibitor
Excerpt: In order to better understand how to achieve an optimal intermediate RNase activation state through engagement of IRE1α's kinase domain, we first established a quantitative in vitro framework for characterizing how ATP-binding site occupancy influences RNase activity. […] This dimeric state-commonly referred to as the “back-to-back” dimer—is characterized by an extensive interface between the kinase and RNase domains of each IRE1α protomer; this dimeric state can be promoted through mass action as IRE1α concentration is raised. […] Furthermore, ligands that occupy the ATP-binding site of the kinase domain can also stimulate IRE1α's RNase activity by promoting dimer formation. We measured the ability of a purified, recombinant kinase/RNase domain construct of IRE1α—called IRE1α*—to cleave a FRET-quenched XBP1 RNA mini-substrate as a function of IRE1α* concentration, in order to provide a quantitative metric of IRE1α's dimer affinity (Kdimer) (FIG. 1B).
IRE1α* or dPIRE1α* was titrated from either 2 μM or 4 μM in two-fold serial dilutions in assay buffer (20 mM Tris, 50 mM sodium chloride, 1 mM MgCl2, 2 mM DTT, 0.05% Triton X-100 (v/v), pH 7.5) and incubated with 50 μM inhibitor for 30 minutes at room temperature. Assays were initiated by adding 10 μL of XBP1-mini substrate (5′-Alex647-CAUGUCCGCAGCGCAUG-IowaBlack-FQ-3′ (SEQ ID NO:1); IDT) to the wells at a final concentration of 6 μM and a final well volume of 30 μL. Fluorescence was detected on a Perkin Elmer Envision Microplate Reader at excitation and emission wavelengths of 650 nm and 665 nm. Reaction process was monitored real time in 10-second intervals for at least 30 minutes. Initial rates of XBP1-cleavage were determined for each respective IRE1α* of dpIRE1α* concentration. Specific activity was then determined by dividing rate (RFU/s) by the respective IRE1α* of dpIRE1α* used (RFU/s*[IRE1α]). Kdimer values were determined by fitting these values using the non-linear regression ‘one-site total’ binding parameter in GraphPad Prism analysis software.

[4] = biological target: T2, dpIRE1α* (Homo sapiens, UniProt O75460); assay: In vitro Kdimer assay with dephosphorylated construct; settings: 50 μM inhibitor
T2 construct: human IRE1α (residues 547-977, IRE1α*) was expressed in SF9 insect cells; His6 (N); made in house; host or cells: Sf9 insect cells, then λ-PPase treatment
T2 sequence (O75460 547-977): as above
Excerpt: In order to better understand how to achieve an optimal intermediate RNase activation state through engagement of IRE1α's kinase domain, we first established a quantitative in vitro framework for characterizing how ATP-binding site occupancy influences RNase activity. […] This dimeric state-commonly referred to as the “back-to-back” dimer—is characterized by an extensive interface between the kinase and RNase domains of each IRE1α protomer; this dimeric state can be promoted through mass action as IRE1α concentration is raised. […] Furthermore, ligands that occupy the ATP-binding site of the kinase domain can also stimulate IRE1α's RNase activity by promoting dimer formation. We measured the ability of a purified, recombinant kinase/RNase domain construct of IRE1α—called IRE1α*—to cleave a FRET-quenched XBP1 RNA mini-substrate as a function of IRE1α* concentration, in order to provide a quantitative metric of IRE1α's dimer affinity (Kdimer) (FIG. 1B). […]
IRE1α* or dPIRE1α* was titrated from either 2 μM or 4 μM in two-fold serial dilutions in assay buffer (20 mM Tris, 50 mM sodium chloride, 1 mM MgCl2, 2 mM DTT, 0.05% Triton X-100 (v/v), pH 7.5) and incubated with 50 μM inhibitor for 30 minutes at room temperature. […] Fluorescence was detected on a Perkin Elmer Envision Microplate Reader at excitation and emission wavelengths of 650 nm and 665 nm. […]

| Compound | kinase activity of IRE1α* / ATP-binding site occupancy (in words) [1] | RNase activity of IRE1α* (in words) [2] | dimerization affinity of IRE1α* / formation of RNase active dimers [3] | formation of the RNase active dimer of dpIRE1α* [4] |
| --- | --- | --- | --- | --- |
| N[C@H]1CC[C@H](Nc2nccc(-c3cccnc3Oc3ccc(NS(=O)(=O)CCC(F)(F)F)c(F)c3)n2)CC1 [compound 3, N-(4-(3-(2-((1r,4r)-4-aminocyclohexylamino)pyrimidin-4-yl)pyridin-2-yloxy)-2-fluorophenyl)-3,3,3-trifluoropropane-1-sulfonamide] | dose-dependently inhibited | dose-dependently inhibited | completely suppressed the formation of RNase active dimers | – |
| NC(=O)Nc1cc(-c2cccc(F)c2)sc1C(=O)N[C@H]1CCCNC1 [AZD7762] | – | – | promotes the formation of the RNase active dimer of IRE1α* | promotes the formation of the RNase active dimer of dpIRE1α* |
